Source: ChEMBL document CHEMBL5550144, “Lysine-homologue substitution: Impact on antimicrobial activity and proteolytic stability of cationic stapled heptapeptides” (Bioorg Med Chem, 2024)
In brackets after ≈: the same amount, converted by molar mass. Positions of bridges follow the written chain, without caps; N, C: chain ends. Non-standard residues stand in square brackets, D forms with d. Residues, ends and D or L forms follow the SMILES beside them. S5 = C=CCCC[C@](C)(N)C(=O)O; Nle = CCCC[C@H](N)C(=O)O; Orn = NCCC[C@H](N)C(=O)O; Dab = NCC[C@H](N)C(=O)O; Dap = NC[C@H](N)C(=O)O

Experiments:
Staphylococcus aureus = experiment: Antimicrobial activity against Staphylococcus aureus ATCC 6538p assessed as inhibition of bacterial growth measured for 24 hrs by standard broth microdilution method; type: functional
[1] = system: Staphylococcus epidermidis; experiment: Antimicrobial activity against Staphylococcus epidermidis ATCC 12228 assessed as inhibition of bacterial growth measured for 24 hrs by standard broth microdilution method; type: functional
Escherichia coli = experiment: Antimicrobial activity against Escherichia coli ATCC 25922 assessed as inhibition of bacterial growth measured for 24 hrs by standard broth microdilution method; type: functional
Shigella dysenteriae = experiment: Antimicrobial activity against Shigella dysenteriae ATCC 9752 assessed as inhibition of bacterial growth measured for 24 hrs by standard broth microdilution method; type: functional
Salmonella typhimurium = experiment: Antimicrobial activity against Salmonella enterica subsp. enterica serovar Typhimurium ATCC 14028 assessed as inhibition of bacterial growth measured for 24 hrs by standard broth microdilution method; type: functional
Klebsiella pneumoniae = experiment: Antimicrobial activity against Klebsiella pneumoniae ATCC 10031 assessed as inhibition of bacterial growth measured for 24 hrs by standard broth microdilution method; type: functional
Pseudomonas aeruginosa = experiment: Antimicrobial activity against Pseudomonas aeruginosa ATCC 27853 assessed as inhibition of bacterial growth measured for 24 hrs by standard broth microdilution method; type: functional
[2] = Hemolytic activity in human Red blood cells assessed as hemolysis rate at 24 uM incubated for 30 mins by absorbance based analysis relative to control; type: toxicity, cell-based, Erythrocyte; details: read-out: Activity
Trypsin [3] = biological target: T1, Trypsin (Homo sapiens, UniProt P07477+P07478+P35030); experiment: Proteolytic stability of compound assessed as trypsin (unknown origin) mediated drug degradation by measuring parent compound remaining measured at 10 to 60 mins by HPLC analysis; type: ADME, protein assay; details: time 10-60 min
Trypsin [4] = biological target: T1, Trypsin; experiment: Proteolytic stability of compound assessed as trypsin (unknown origin) mediated drug degradation by measuring half life measured at 10 to 60 mins by HPLC analysis; type: ADME, protein assay; details: time 10-60 min
Trypsin [5] = biological target: T1, Trypsin; experiment: Proteolytic stability of compound assessed as trypsin (unknown origin) mediated drug hydrolysis measured at 10 to 60 mins by HPLC analysis; type: ADME, protein assay; details: time 10-60 min, read-out: Drug degradation
Trypsin [6] = biological target: T1, Trypsin; experiment: Proteolytic stability of compound assessed as trypsin (unknown origin) mediated drug degradation measured at 10 to 60 mins by HPLC analysis; type: ADME, protein assay; details: time 10-60 min, read-out: Drug degradation

Row | Structure (SMILES) | MIC (Staphylococcus aureus) [µg/mL] | MIC [1] [µg/mL] | MIC (Escherichia coli) [µg/mL] | MIC (Shigella dysenteriae) [µg/mL] | MIC (Salmonella typhimurium) [µg/mL] | MIC (Klebsiella pneumoniae) [µg/mL] | MIC (Pseudomonas aeruginosa) [µg/mL] | hemolysis at 0.5 h, 24 µM [2] [%] | Stability (Trypsin [3]) [%] | half-life (Trypsin [4]) [h] | metabolised (Trypsin [5]) [%] | metabolised (Trypsin [6]) [%]
1 | CCCC[C@@H]1NC(=O)[C@H](CN)NC(=O)[C@H](Cc2c[nH]c3ccccc23)NC(=O)[C@@](C)(NC(=O)[C@@H](N)CN)CCC/C=C/CCC[C@@](C)(C(=O)N[C@@H](CN)C(N)=O)NC1=O (H-[Dap][S5]W[Dap][Nle][S5][Dap]-NH2; staple (E) 2-6) | 12.5 (≈ 15.2 µM) | 25 (≈ 30.3 µM) | 25 (≈ 30.3 µM) | 25 (≈ 30.3 µM) | 50 (≈ 60.6 µM) | 50 (≈ 60.6 µM) | 50 (≈ 60.6 µM) | 0.2 | > 90 | 6.38 |  | 
2 | CCCC[C@@H]1NC(=O)[C@H](CCCN)NC(=O)[C@H](Cc2c[nH]c3ccccc23)NC(=O)[C@@](C)(NC(=O)[C@@H](N)CCCN)CCC/C=C/CCC[C@@](C)(C(=O)N[C@@H](CCCN)C(N)=O)NC1=O (H-[Orn][S5]W[Orn][Nle][S5][Orn]-NH2; staple (E) 2-6) | 12.5 (≈ 13.7 µM) | 6.3 (≈ 6.93 µM) | 25 (≈ 27.5 µM) | 12.5 (≈ 13.7 µM) | 25 (≈ 27.5 µM) | 37.5 (≈ 41.2 µM) | 18.8 (≈ 20.7 µM) | 0.4 |  | 4.3 | 11 | 
3 | C[C@@]1(C(=O)N[C@@H](CCCCN)C(N)=O)CCC/C=C/CCC[C@](C)(NC(=O)[C@@H](N)CCCCN)C(=O)N[C@@H](Cc2c[nH]c3ccccc23)C(=O)N[C@@H](CCCCN)C(=O)N[C@@H](CCC(=O)O)C(=O)N1 (H-K[S5]WKE[S5]K-NH2; staple (E) 2-6) | > 100 | > 100 | > 100 | > 100 | > 100 | > 100 | > 100 | < 0.1 |  |  |  | 
4 | CCCC[C@@H]1NC(=O)[C@H](CCN)NC(=O)[C@H](Cc2c[nH]c3ccccc23)NC(=O)[C@@](C)(NC(=O)[C@@H](N)CCN)CCC/C=C/CCC[C@@](C)(C(=O)N[C@@H](CCN)C(N)=O)NC1=O (H-[Dab][S5]W[Dab][Nle][S5][Dab]-NH2; staple (E) 2-6) | 25 (≈ 28.8 µM) | 12.5 (≈ 14.4 µM) | 25 (≈ 28.8 µM) | 25 (≈ 28.8 µM) | 50 (≈ 57.7 µM) | 50 (≈ 57.7 µM) | 50 (≈ 57.7 µM) | 0.1 |  | 4.82 | 11 | 
5 | CCCC[C@@H]1NC(=O)[C@H](CCCCN)NC(=O)[C@H](Cc2c[nH]c3ccccc23)NC(=O)[C@@](C)(NC(=O)[C@@H](N)CCCCN)CCC/C=C/CCC[C@@](C)(C(=O)N[C@@H](CCCCN)C(N)=O)NC1=O (H-K[S5]WK[Nle][S5]K-NH2; staple (E) 2-6) | 12.5 (≈ 13.1 µM) | 6.3 (≈ 6.62 µM) | 25 (≈ 26.3 µM) | 12.5 (≈ 13.1 µM) | 50 (≈ 52.6 µM) | 50 (≈ 52.6 µM) | 25 (≈ 26.3 µM) | 0.5 |  | 1.33 |  | > 40
